Measured values taken from ChEMBL document CHEMBL1201862, “PubChem BioAssay data set” (2004).
Blank lines part the entries; values can stand above or below the molecule they belong to. Active and inactive are the calls of the source.

Legend:
[1] = target: T1, Sentrin-specific protease 1 (Homo sapiens, UniProt Q9P0U3); assay: potency of human SENP1 inhibitors, dose response, biochemical, kinetic FRET (AID 651697); format: functional; conditions: read-out: IC50_Mean
T1 sequence (Q9P0U3 whole entry): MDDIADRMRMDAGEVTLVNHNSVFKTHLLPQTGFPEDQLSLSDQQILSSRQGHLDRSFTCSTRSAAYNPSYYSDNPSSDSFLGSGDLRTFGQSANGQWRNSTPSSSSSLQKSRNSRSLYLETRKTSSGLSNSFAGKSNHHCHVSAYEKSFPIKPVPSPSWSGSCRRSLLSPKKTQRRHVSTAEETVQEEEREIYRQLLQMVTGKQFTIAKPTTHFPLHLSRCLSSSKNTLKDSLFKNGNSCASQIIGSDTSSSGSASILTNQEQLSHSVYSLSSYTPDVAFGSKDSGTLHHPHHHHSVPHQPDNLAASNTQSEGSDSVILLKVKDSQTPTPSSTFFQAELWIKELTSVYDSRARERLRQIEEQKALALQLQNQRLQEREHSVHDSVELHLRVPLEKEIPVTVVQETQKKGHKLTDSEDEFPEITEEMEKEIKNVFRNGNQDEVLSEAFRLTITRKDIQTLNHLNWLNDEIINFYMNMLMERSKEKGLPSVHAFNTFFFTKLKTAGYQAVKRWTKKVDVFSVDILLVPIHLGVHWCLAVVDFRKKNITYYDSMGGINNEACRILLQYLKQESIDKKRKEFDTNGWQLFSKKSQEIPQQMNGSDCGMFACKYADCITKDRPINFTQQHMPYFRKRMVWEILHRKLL

[2] = target: T1, Sentrin-specific protease 1; assay: Dose response confirmation of small molecule inhibitors of the catalytic domain of the SUMO protease, SENP1 in a FRET assay.; format: functional; conditions: read-out: IC50_Mean
Beta-galactosidase = Beta-galactosidase (Escherichia coli, UniProt Q8VNN2); assay: Dose response counterscreen for EBI2 assay utilizing the enzyme, b-galactosidase.; format: functional
Chain of Beta-galactosidase (Q8VNN2 whole entry): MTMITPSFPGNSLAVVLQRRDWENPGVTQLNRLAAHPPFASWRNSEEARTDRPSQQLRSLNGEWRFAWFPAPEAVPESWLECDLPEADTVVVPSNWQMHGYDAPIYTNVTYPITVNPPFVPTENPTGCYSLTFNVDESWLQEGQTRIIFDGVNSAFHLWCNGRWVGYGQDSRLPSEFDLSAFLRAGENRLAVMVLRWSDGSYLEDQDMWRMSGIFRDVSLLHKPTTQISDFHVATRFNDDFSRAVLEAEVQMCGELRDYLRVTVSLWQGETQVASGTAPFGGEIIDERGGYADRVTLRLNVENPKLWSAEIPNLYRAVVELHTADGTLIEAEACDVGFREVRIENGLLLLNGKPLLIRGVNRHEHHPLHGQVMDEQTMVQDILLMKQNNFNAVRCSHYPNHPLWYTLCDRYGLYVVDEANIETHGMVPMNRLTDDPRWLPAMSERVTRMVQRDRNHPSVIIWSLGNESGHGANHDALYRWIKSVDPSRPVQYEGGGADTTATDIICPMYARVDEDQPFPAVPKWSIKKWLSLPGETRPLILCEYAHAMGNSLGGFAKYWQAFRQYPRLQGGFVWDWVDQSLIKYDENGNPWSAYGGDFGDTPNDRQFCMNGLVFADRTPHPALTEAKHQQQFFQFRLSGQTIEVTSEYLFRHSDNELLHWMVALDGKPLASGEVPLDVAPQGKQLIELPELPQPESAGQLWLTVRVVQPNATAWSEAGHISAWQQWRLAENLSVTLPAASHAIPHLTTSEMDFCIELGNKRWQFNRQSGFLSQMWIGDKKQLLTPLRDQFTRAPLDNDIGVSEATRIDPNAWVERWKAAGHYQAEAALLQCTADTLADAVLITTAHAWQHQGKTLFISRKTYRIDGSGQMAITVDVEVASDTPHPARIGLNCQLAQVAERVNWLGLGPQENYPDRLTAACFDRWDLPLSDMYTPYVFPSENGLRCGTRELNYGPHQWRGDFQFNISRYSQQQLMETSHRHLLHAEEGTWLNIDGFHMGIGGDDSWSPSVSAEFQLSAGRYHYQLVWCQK

cells [3] = format: functional, cell-based
[4] = target: T2, Trace amine-associated receptor 1 (Homo sapiens, UniProt Q96RJ0); assay: Fluorescence-based cell-based high throughput dose response assay to identify agonists of the human trace amine associated receptor 1 (TAAR1).; format: functional
T2 sequence (Q96RJ0 whole entry): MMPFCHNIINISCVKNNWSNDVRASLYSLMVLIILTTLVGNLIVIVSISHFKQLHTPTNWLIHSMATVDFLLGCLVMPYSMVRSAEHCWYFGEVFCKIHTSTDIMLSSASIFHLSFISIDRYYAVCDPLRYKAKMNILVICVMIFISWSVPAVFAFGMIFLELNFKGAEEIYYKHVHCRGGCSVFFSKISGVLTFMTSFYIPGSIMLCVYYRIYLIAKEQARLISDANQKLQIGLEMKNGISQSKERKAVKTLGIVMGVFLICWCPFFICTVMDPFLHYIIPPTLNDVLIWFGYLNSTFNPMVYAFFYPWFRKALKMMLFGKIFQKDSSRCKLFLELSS

[5] = target: T2, Trace amine-associated receptor 1; assay: Counterscreen for agonists of the human trace amine associated receptor 1 (hTAAR1): Fluorescence-based cell-based high throughput dose response assay to identify hTAAR1 agonist that also desensitize TAAR1 receptor response.; format: functional
cells [6] = format: functional, cell-based; remark: listed apart in the source
[7] = target: T3, RNA-binding protein pos-1 (Caenorhabditis elegans, UniProt G5EF15); assay: inhibitors of POS-1/mex-3 RNA binding, dose response, biochemical, fluorescence polarization (AID 1964);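 note: purified POS-1 fused to maltose binding protein made in E. coli; potency of compounds blocking POS-1 binding to fluorescent RNA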
T3 sequence (G5EF15 whole entry): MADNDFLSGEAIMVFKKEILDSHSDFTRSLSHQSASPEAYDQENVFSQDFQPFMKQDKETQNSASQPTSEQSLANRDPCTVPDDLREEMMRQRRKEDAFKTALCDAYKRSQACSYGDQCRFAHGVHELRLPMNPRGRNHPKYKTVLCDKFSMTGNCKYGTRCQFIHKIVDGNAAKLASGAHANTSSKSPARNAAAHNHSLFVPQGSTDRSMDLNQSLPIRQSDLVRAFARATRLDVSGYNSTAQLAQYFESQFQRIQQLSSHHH

[8] = target: T4, Zinc finger protein mex-5 (Caenorhabditis elegans, UniProt Q9XUB2); assay: MEX-5/TCR-2 RNA interaction inhibitors, dose response, biochemical, C. elegans, fluorescence polarization (AID 1960)
T4 sequence (Q9XUB2 whole entry): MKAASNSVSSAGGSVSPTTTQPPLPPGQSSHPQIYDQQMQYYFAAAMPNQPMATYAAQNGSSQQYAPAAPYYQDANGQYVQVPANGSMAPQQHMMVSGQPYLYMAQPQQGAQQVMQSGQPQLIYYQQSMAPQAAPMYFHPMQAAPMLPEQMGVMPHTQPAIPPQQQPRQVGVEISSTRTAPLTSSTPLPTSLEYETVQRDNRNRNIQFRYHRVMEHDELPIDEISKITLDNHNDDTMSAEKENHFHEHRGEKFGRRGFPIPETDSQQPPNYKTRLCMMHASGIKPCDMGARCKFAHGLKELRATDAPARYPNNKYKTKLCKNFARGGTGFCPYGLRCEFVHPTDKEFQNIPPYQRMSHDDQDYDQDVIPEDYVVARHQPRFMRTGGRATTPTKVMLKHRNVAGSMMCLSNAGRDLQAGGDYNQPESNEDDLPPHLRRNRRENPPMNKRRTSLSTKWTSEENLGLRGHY

Large T antigen = Large T antigen (Simian virus 40, UniProt P03070); format: functional, Betapolyomavirus macacae;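 note: Confirmatory-stage PubChem screen for compounds that inhibit SV40 T antigen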
Chain of Large T antigen (P03070 whole entry): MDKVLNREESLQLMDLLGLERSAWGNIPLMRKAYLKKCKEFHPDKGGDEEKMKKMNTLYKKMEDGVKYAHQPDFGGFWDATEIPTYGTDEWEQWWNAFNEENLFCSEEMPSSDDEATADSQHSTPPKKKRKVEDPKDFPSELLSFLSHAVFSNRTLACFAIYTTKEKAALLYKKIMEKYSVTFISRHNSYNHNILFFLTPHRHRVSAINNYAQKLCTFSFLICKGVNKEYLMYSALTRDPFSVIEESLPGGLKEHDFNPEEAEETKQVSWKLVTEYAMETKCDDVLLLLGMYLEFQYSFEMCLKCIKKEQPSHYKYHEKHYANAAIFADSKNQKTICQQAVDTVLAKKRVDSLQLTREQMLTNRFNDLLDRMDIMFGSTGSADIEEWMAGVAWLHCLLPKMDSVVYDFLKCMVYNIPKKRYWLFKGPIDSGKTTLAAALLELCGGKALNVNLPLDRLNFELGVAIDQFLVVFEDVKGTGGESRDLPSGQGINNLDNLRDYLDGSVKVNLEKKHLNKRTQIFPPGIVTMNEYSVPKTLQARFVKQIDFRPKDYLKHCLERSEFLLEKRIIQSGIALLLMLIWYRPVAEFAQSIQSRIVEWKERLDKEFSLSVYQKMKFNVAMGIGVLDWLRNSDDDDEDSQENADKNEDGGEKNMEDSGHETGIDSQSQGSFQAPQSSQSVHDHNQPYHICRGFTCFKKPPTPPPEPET

[9] = target: DNA dC->dU-editing enzyme APOBEC-3A (Homo sapiens, UniProt P31941); assay: Dose Response confirmation of small molecule APOBEC3A DNA Deaminase Inhibitors via a fluorescence-based single-stranded DNA deaminase assay. [Related pubchem assays (depositor defined):AID493011, AID493024]; format: functional
Chain of DNA dC->dU-editing enzyme APOBEC-3A (P31941 whole entry): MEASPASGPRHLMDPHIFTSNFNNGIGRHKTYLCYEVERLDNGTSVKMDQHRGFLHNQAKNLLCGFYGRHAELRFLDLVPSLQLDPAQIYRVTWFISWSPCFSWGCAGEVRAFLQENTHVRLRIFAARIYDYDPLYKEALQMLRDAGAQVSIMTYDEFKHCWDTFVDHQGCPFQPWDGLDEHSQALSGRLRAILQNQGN

[10] = target: DNA dC->dU-editing enzyme APOBEC-3G (Homo sapiens, UniProt Q9HC16); format: functional;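 note: Dose-response counterscreen measuring inhibition of APOBEC3G DNA deaminase activity, run while confirming APOBEC3A inhibitors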
Chain of DNA dC->dU-editing enzyme APOBEC-3G (Q9HC16 whole entry): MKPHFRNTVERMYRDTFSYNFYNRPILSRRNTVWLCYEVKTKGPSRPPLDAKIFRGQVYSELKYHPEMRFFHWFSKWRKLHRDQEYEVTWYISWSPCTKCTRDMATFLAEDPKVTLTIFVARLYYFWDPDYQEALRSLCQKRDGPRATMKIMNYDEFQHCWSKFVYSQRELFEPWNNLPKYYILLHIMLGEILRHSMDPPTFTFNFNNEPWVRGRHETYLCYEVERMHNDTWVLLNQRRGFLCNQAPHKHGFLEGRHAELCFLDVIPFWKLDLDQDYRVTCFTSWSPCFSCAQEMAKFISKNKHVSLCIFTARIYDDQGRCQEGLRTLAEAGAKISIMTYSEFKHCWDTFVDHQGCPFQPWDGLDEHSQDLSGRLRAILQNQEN

[11] = target: T5, Small ubiquitin-related modifier 1 (Homo sapiens, UniProt P63165); assay: inhibitors of SUMO1 peptide binding, dose response, biochemical, fluorescence polarization, uHTS hits (AID 624382); format: functional; conditions: read-out: IC50_Mean
T5 sequence (P63165 whole entry): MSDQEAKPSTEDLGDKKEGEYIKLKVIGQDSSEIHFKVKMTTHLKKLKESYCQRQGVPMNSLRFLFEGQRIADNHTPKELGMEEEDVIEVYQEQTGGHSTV

[12] = target: T5, Small ubiquitin-related modifier 1; assay: inhibitors of SUMO1 partner interactions, dose response, biochemical, FRET (AID 624383); format: functional; conditions: read-out: IC50_Mean
Caspase-6 = target: T6, Caspase-6 (Homo sapiens, UniProt P55212); assay: human caspase-6 inhibitors, dose response, biochemical, VEID-R110 fluorescence, cherry-pick (AID 720632)
T6 sequence (P55212 whole entry): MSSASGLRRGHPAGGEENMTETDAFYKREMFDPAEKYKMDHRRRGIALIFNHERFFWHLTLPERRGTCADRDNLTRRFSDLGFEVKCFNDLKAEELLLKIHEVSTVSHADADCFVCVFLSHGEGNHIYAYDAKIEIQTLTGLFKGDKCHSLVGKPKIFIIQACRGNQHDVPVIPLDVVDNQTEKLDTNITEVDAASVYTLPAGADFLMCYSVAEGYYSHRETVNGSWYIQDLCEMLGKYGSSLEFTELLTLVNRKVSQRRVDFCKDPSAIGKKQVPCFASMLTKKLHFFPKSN

[13] = target: T7, Histone-lysine N-methyltransferase NSD2 (Homo sapiens, UniProt O96028); format: biochemical
T7 sequence (O96028 whole entry): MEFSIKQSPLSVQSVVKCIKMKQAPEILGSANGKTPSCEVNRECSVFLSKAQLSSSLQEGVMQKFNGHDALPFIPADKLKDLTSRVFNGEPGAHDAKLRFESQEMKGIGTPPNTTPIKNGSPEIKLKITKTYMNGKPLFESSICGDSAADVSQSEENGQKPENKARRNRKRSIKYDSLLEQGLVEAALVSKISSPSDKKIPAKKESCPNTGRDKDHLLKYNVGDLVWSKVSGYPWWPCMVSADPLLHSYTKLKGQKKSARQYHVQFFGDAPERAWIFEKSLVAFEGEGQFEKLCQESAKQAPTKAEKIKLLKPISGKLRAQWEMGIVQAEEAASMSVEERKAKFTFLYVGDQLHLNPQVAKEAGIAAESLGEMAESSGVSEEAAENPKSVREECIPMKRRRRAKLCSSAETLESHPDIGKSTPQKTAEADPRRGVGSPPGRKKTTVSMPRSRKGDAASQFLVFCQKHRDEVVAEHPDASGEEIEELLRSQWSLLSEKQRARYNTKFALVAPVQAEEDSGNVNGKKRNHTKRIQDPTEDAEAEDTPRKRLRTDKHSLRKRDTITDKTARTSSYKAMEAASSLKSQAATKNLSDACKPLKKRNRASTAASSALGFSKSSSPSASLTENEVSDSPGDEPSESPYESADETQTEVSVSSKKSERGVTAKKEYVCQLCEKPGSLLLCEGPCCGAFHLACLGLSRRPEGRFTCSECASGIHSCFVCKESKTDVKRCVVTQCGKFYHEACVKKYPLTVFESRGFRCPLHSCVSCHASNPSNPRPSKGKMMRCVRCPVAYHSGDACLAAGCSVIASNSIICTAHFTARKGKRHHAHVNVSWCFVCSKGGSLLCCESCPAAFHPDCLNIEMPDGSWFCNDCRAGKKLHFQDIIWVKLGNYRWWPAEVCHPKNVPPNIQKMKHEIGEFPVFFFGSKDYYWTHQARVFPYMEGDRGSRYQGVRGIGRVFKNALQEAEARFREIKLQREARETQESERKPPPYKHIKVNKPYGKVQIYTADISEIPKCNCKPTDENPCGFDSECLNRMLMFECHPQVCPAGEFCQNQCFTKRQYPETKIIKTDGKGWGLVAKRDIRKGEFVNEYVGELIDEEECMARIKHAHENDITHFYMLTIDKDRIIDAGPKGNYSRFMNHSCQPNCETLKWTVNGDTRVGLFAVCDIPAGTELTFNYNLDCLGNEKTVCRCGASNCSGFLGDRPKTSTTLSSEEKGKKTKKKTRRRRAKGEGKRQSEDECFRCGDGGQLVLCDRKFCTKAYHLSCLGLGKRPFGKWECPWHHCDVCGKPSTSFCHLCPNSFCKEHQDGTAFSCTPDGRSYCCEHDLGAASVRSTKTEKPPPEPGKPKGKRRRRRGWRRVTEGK

[14] = HEp-2 cell cytotoxicity, dose response, cytotoxicity control for RSV inhibitor project, HTS (AID 2410); format: functional; conditions: human respiratory syncytial virus
[15] = target: Endoplasmic reticulum aminopeptidase 1 (Homo sapiens, UniProt Q9NZ08); assay: ERAP1 aminopeptidase inhibitors, dose response, biochemical, cherry-pick, set 2, plate reader (AID 743314)
Chain of Endoplasmic reticulum aminopeptidase 1 (Q9NZ08 whole entry): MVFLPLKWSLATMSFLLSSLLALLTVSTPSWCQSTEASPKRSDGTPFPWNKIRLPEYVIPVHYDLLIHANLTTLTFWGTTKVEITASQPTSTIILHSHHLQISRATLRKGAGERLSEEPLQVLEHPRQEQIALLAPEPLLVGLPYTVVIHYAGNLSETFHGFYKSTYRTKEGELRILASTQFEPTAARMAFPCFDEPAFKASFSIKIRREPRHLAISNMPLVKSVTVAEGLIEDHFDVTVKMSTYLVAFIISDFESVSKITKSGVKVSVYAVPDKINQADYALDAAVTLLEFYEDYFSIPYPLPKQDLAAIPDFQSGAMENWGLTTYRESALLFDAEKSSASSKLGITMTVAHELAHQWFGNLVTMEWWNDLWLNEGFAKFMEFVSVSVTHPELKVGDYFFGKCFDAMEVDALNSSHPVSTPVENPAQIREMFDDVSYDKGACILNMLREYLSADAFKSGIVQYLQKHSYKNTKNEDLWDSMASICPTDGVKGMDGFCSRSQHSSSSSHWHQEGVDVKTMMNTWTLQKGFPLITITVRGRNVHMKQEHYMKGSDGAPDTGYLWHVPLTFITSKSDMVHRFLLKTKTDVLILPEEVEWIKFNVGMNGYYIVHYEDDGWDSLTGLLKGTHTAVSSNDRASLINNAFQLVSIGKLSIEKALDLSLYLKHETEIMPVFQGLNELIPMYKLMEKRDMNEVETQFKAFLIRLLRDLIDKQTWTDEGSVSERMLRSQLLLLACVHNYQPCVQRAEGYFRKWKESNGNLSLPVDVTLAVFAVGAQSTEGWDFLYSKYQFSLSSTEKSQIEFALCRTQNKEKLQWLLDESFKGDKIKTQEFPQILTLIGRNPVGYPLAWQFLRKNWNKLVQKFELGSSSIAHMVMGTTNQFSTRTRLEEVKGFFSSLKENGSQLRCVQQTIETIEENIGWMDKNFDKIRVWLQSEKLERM

Vero = assay: Vero cell toxicity, dose response, cytotoxicity control, plate reader, cherry-pick samples (AID 687020); format: functional, cell-based; conditions: Chlorocebus sabaeus
[16] = T. cruzi growth inhibition in host cells, dose response, cell-based, plate reader, dry powder, set 2 (AID 652275); format: functional

- IC50 [1]: 13.1 µM (active)
- IC50 [2]: 19 µM (active)
SMILES: Nc1ccc2c(c1)C(=O)N(CCCC(=O)O)C2=O

- IC50 (Beta-galactosidase): > 80 µM (inactive)
SMILES: O=C(c1cc2ccccc2o1)N1CCN(S(=O)(=O)c2ccc(Cl)s2)CC1

SMILES: O=C(O)C1C2CCC(C2)C1C(=O)NCCc1ccc(F)cc1 (stereo not given)
- IC50 (cells [3]): > 29.9 µM (inactive)
- EC50 [4]: 14.8 µM (inactive)
- IC50 [5]: > 29.9 µM (inactive)
- EC50 (cells [6]): > 29.9 µM (inactive)

SMILES: Nc1ccc(Nc2ccccc2)c(S(=O)(=O)O)c1
- EC50 [7]: 108 µM (active)
- EC50 [8]: 34 µM (active)
- IC50 (Large T antigen): 7.15 µM (active)
- IC50 [9]: 16.5 µM (active)
- IC50 [10]: 34.1 µM (active)
- IC50 [11]: > 66.6 µM (inactive)
- IC50 [12]: 12.8 µM (active)
- AC50 (Caspase-6): 1.22 µM (active)
- AC50 [13]: 8.41 µM (active)

- AC50 [15]: 4.79 µM (active)
SMILES: Cc1c(-c2ccccc2)c(=O)oc2cc(O)ccc12
- CC50 [14]: 42.4 µM (active)

- IC50 (Beta-galactosidase): > 80 µM (inactive)
SMILES: O=C(CSc1nnc(-c2ccc(O)cc2)n1Cc1ccccc1)NNC(=O)c1ccc(Br)cc1

SMILES: O=C(Nc1ccccc1)Nc1ccno1
- IC50 (cells [3]): > 29.9 µM (inactive)
- EC50 [4]: 4.65 µM (active)
- IC50 [5]: 4.63 µM (active)
- EC50 (cells [6]): > 29.9 µM (inactive)

SMILES: COc1ccc(C(CNC(=O)COc2cc(C)ccc2Cl)N2CCCCC2)cc1 (stereo not given)
- AC50 (Vero): 17.6 µM (active)

SMILES: COCCNc1nc(Nc2ccccc2Cl)c2sccc2n1
- AC50 (Vero): 6.94 µM (active)

SMILES: CC(=O)c1ccc(OCCCC(=O)OCC(=O)Nc2ccc3[nH]c(O)nc3c2)cc1
- IC50 [11]: > 66.6 µM (inactive)
- IC50 [12]: 16.9 µM (active)

SMILES: C#CCNC(=O)C[C@@H]1C[C@@]2(C(=O)OC)CCCCC=C2N(Cc2cccc3ccccc23)C1=O
- AC50 (Vero): 36.6 µM (active)

SMILES: COc1cccc(C(=O)N[C@@H](Cc2cccnc2)C(=O)N2CCC[C@H]2C(=O)NCCc2ccccc2Cl)c1
- IC50 (cells [3]): > 29.9 µM (inactive)
- EC50 [4]: 2.18 µM (active)
- IC50 [5]: 4.58 µM (active)
- EC50 (cells [6]): > 29.9 µM (inactive)

SMILES: C[C@H]1CN([C@@H](C)CO)C(=O)c2cccc(NC(=O)c3ccncc3)c2O[C@@H]1CN(C)Cc1ccc(F)c(Cl)c1
- AC50 [16]: 0.00198 µM (active)

SMILES: Cc1cccc(-c2ccc([C@H]3[C@H](CO)N4CCCCN(Cc5cncnc5)C[C@@H]34)cc2)c1
- AC50 [16]: 0.198 µM (active)

SMILES: CC(C)N1C[C@@H](CNCc2ccc(Oc3ccccc3)cc2)Oc2c(NC(=O)c3ccncc3)cccc2C1=O
- AC50 [16]: 0.00666 µM (active)
